In PubChem BioAssay (NCI):
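Five concentrations, 48 hours, 96-well plates. TGI: concentration producing complete growth inhibition.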

What was measured:
Experiment in all cases: NCI-60 cell line screen, 48 h
LXFL 529 NSCLC = test system: LXFL 529 NSCLC
DMS 273 small cell lung = test system: DMS 273 small cell lung
SN12C renal = test system: SN12C renal
OVCAR-5 ovarian = test system: OVCAR-5 ovarian
RXF 393 renal = test system: RXF 393 renal
COLO 205 colon = test system: COLO 205 colon
HOP-62 NSCLC = test system: HOP-62 NSCLC
KM12 colon = test system: KM12 colon
U251 CNS = test system: U251 CNS
MALME-3M melanoma = test system: MALME-3M melanoma
HCT-15 colon = test system: HCT-15 colon
SK-OV-3 ovarian = test system: SK-OV-3 ovarian
IGROV1 ovarian = test system: IGROV1 ovarian
KM20L2 colon = test system: KM20L2 colon
SNB-19 CNS = test system: SNB-19 CNS
OVCAR-4 ovarian = test system: OVCAR-4 ovarian
SW-620 colon = test system: SW-620 colon
SNB-75 CNS = test system: SNB-75 CNS
SK-MEL-28 melanoma = test system: SK-MEL-28 melanoma
XF 498 CNS = test system: XF 498 CNS
CAKI-1 renal = test system: CAKI-1 renal
A498 renal = test system: A498 renal
NCI-H522 lung = test system: NCI-H522 lung
M14 melanoma = test system: M14 melanoma
LOX IMVI melanoma = test system: LOX IMVI melanoma
SF-539 CNS = test system: SF-539 CNS
OVCAR-8 ovarian = test system: OVCAR-8 ovarian
ACHN renal = test system: ACHN renal
MOLT-4 leukemia = test system: MOLT-4 leukemia
HCC-2998 colon = test system: HCC-2998 colon
OVCAR-3 ovarian = test system: OVCAR-3 ovarian
SR leukemia = test system: SR leukemia
A549 NSCLC = test system: A549 NSCLC
UO-31 renal = test system: UO-31 renal
NCI-H23 lung = test system: NCI-H23 lung
TK-10 renal = test system: TK-10 renal
UACC-257 melanoma = test system: UACC-257 melanoma
HOP-92 NSCLC = test system: HOP-92 NSCLC
M19-MEL melanoma = test system: M19-MEL melanoma
SF-295 CNS = test system: SF-295 CNS
SK-MEL-5 melanoma = test system: SK-MEL-5 melanoma
CCRF-CEM leukemia = test system: CCRF-CEM leukemia
NCI-H460 lung = test system: NCI-H460 lung
HCT-116 colon = test system: HCT-116 colon
EKVX NSCLC = test system: EKVX NSCLC
SK-MEL-2 melanoma = test system: SK-MEL-2 melanoma
UACC-62 melanoma = test system: UACC-62 melanoma
K-562 leukemia = test system: K-562 leukemia
HOP-18 NSCLC = test system: HOP-18 NSCLC
DLD-1 colon = test system: DLD-1 colon
HL-60(TB) leukemia = test system: HL-60(TB) leukemia
NCI-H226 lung = test system: NCI-H226 lung
786-0 renal = test system: 786-0 renal
HT29 colon = test system: HT29 colon
RPMI-8226 leukemia = test system: RPMI-8226 leukemia
DMS 114 small cell lung = test system: DMS 114 small cell lung
SF-268 CNS = test system: SF-268 CNS

Measured: TGI

O=C(NC1C(=O)NNC1c1ccccc1Cl)c1ccccc1 (configuration not stated)
> 100 µM: all assays above
